Data on two compounds can be found in patent publication US10328065B2, “Pharmaceutical combination comprising the PI3K inhibitor alpelisib and the B-RAF inhibitor dabrafenib; the use of such combination in the treatment or prevention of cancer” (Novartis AG, priority 2015, dated 2019).

Holding throughout (format): cell-based
One experiment deals with LS411N. The experiment can be described thus: Cell proliferation (cell count by microscopy) and HSA synergy, LS411N. The following applies: Homo sapiens, LS-411N; LS411N (BRAF mutant); 72 h; 50% of cell counts relative to DMSO; tested A 13 nM-10 μM, B 1.4 nM-1 μM. As for the experimental part: (§1) COMPOUNDS A and B were dissolved in 100% DMSO (Sigma, Catalog number D2650) at concentrations of 20 mM and stored at −20° C. until use. Compounds were arrayed in drug master plates (Greiner, Catalog number 788876) and serially diluted 3-fold (7 steps) at 2000× concentration.
(§2) Colorectal cancer cell lines used for this study were obtained, cultured and processed from commercial vendors ATCC, HSRRB, and CellBank Australia (Table 1). All cell line media were supplemented with 10% FBS (HyClone, Catalog number SH30071.03). Media for LIM2405 and LIM2551 was additionally supplemented with 0.6 μg/mL Insulin (SIGMA, Catalog number 19278), 1 μg/mL Hydrocortisone (SIGMA, Catalog number H0135), and 10 μM 1-Thioglycerol (SIGMA, Catalog number M6145).
(§3) Cell lines were cultured in 37° C. and 5% CO2 incubator and expanded in T-75 flasks. In all cases cells were thawed from frozen stocks, expanded through ≥1 passage using 1:3 dilutions, counted and assessed for viability using a ViCell counter (Beckman-Coulter) prior to plating. To split and expand cell lines, cells were dislodged from flasks using 0.25% Trypsin-EDTA (GIBCO, Catalog number 25200). All cell lines were determined to be free of mycoplasma contamination as determined by a PCR detection methodology performed at Idexx Radil (Columbia, Mo., USA) and correctly identified by detection of a panel of SNPs. […]

Another experiment deals with COLO-205. Nature of the experiment: Cell proliferation (cell count by microscopy) and HSA synergy, COLO-205. The following applies: Homo sapiens; COLO-205 (BRAF mutant); 72 h; 50% of cell counts relative to DMSO; tested A 13 nM-10 μM, B 1.4 nM-1 μM. How it is done: as §1, §2, §3
For a further experiment, the system named is HT-29. Nature of the experiment: Cell proliferation (cell count by microscopy) and HSA synergy, HT-29. The following applies: Homo sapiens; HT-29 (BRAF, PIK3CA mutant); 72 h; 50% of cell counts relative to DMSO; tested A 13 nM-10 μM, B 1.4 nM-1 μM. How it is done:
as §1, §2, §3

Another experiment deals with OUMS-23. Nature of the experiment: Cell proliferation (cell count by microscopy) and HSA synergy, OUMS-23. Particulars: OUMS-23 (BRAF mutant); 72 h; 50% of cell counts relative to DMSO; tested A 13 nM-10 μM, B 1.4 nM-1 μM. How it is done: as §1, §2, §3
The subject of the next experiment is RKO. Nature of the experiment: Cell proliferation (cell count by microscopy) and HSA synergy, RKO. The following applies: Homo sapiens, cell line printed RXO (BRAF, PIK3CA mutant), 72 h, 50% of cell counts relative to DMSO, tested A 13 nM-10 μM, B 1.4 nM-1 μM. As for the experimental part: as §1, §2, §3
The next experiment has as its system LIM2551. The experiment can be described thus: Cell proliferation (cell count by microscopy) and HSA synergy, LIM2551. The following applies: LIM2551 (BRAF, PIK3CA mutant); 72 h; 50% of cell counts relative to DMSO; tested A 13 nM-10 μM, B 1.4 nM-1 μM. As for the experimental part:
as §1, §2, §3

The next experiment deals with LIM2405. The experiment can be described thus: Cell proliferation (cell count by microscopy) and HSA synergy, LIM2405. Particulars: LIM2405 (BRAF mutant); 72 h; 50% of cell counts relative to DMSO; tested A 13 nM-10 μM, B 1.4 nM-1 μM. How it is done: as §1, §2, §3

As to `Cc1nc(NC(=O)N2CCC[C@H]2C(N)=O)sc1-c1ccnc(C(C)(C)C(F)(F)F)c1` [COMPOUND A, (S)-Pyrrolidine-1,2-dicarboxylic acid 2-amide 1-({4-methyl-5-[2-(2,2,2-trifluoro-1,1-dimethyl-ethyl)-pyridin-4-yl]-thiazol-2-yl}-amide)], the IC50 is over 10000 nM in the experiment with LS411N; over 10000 nM in the experiment on COLO-205; 1900 nM in the experiment with HT-29; over 10000 nM in the experiment on OUMS-23; 2600 nM in the experiment with RKO; 1400 nM with LIM2551. Also, in the experiment with LIM2405, the IC50 was over 10000 nM.

As for `CC(C)(C)c1nc(-c2cccc(NS(=O)(=O)c3c(F)cccc3F)c2F)c(-c2ccnc(N)n2)s1` [COMPOUND B, N-{3-[5-(2-Amino-4-pyrimidinyl)-2-(1,1-dimethylethyl)-1,3-thiazol-4-yl]-2-fluorophenyl}-2,6-difluorobenzenesulfonamide], the IC50 with LS411N was over 1000 nM; in the experiment on COLO-205, 10 nM; with HT-29, 12 nM; with OUMS-23, over 1000 nM; in the experiment with RKO, 191 nM; in the experiment on LIM2551 it was 23 nM. Besides, in the experiment on LIM2405, the half-inhibitory concentration (IC50) came out at 7 nM.

Broadly, the IC50 is the concentration that gives 50% inhibition.
